Here are results for 8 compounds from patent US8822508B2, “2-oxo-1-pyrrolidinyl imidazothiadiazole derivatives” (UCB Pharma, S.A., priority 2009, dated 2014).

For one data set the following is noted: Gower A. J. et al., Eur. J. Pharmacol. (1992), 222, 193-203; cited from earlier work.
For the compound `CC[C@H](C(N)=O)N1CCCC1=O` [(R)-α-ethyl-2-oxo-1-pyrrolidine acetamide], the “activity in the treatment of epilepsy (seizure control)” value is given as “completely lacks activity”.

Details in the next data set: not given
The term melting point denotes the temperature of the solid-liquid transition. In turn, `COCc1nn2c(CN3C[C@H](CC(F)(F)F)CC3=O)c(C(F)(F)F)nc2s1` [Compound 12, (4S)-1-{[2-(methoxymethyl)-6-(trifluoromethyl)imidazo[2,1-b][1,3,4]thiadiazol-5-yl]methyl}-4-(2,2,2-trifluoroethyl)pyrrolidin-2-one] returned a melting point of 73 °C. Same read-out and setting: under `COCc1nn2c(CN3CC(CCC(F)(F)F)CC3=O)c(Cl)nc2s1` (single isomer, unassigned; (+)) [Compound 27, (+)-1-{[6-chloro-2-(methoxymethyl)imidazo[2,1-b][1,3,4]thiadiazol-5-yl]methyl}-4-(3,3,3-trifluoropropyl)pyrrolidin-2-one] stands 60 °C; under `O=C1C[C@H](CC(F)(F)Cl)CN1Cc1c(C(F)(F)F)nc2sc(CO)nn12` [Compound 8, (4R)-4-(2-chloro-2,2-difluoroethyl)-1-{[2-(hydroxymethyl)-6-(trifluoromethyl)imidazo[2,1-b][1,3,4]thiadiazol-5-yl]methyl}pyrrolidin-2-one], 154 °C.

On to `COCc1nn2c(CN3CC(CC(C)(F)F)CC3=O)c(C(F)(F)F)nc2s1` (single isomer, unassigned; (+)) [Compound 2, (+)-4-(2,2-difluoropropyl)-1-{[2-(methoxymethyl)-6-(trifluoromethyl)imidazo[2,1-b][1,3,4]thiadiazol-5-yl]methyl}pyrrolidin-2-one], for which the melting point came out at 70 °C. In the case of `COCc1nn2c(CN3CC(CC(C)(F)F)CC3=O)c(C(F)(F)F)nc2s1` (single isomer, unassigned; (-)) [Compound 3, (−)-4-(2,2-difluoropropyl)-1-{[2-(methoxymethyl)-6-(trifluoromethyl)imidazo[2,1-b][1,3,4]thiadiazol-5-yl]methyl}pyrrolidin-2-one], the melting point stood at 67 °C.

The compound `COCc1nn2c(CN3C[C@@H](CC(F)(F)F)CC3=O)c(C(F)(F)F)nc2s1` [Compound 11, (4R)-1-{[2-(methoxymethyl)-6-(trifluoromethyl)imidazo[2,1-b][1,3,4]thiadiazol-5-yl]methyl}-4-(2,2,2-trifluoroethyl)pyrrolidin-2-one] yielded a melting point of 72 °C. In turn, `COCc1nn2c(CN3CC(CC(F)(F)Cl)CC3=O)c(C(F)F)nc2s1` (single isomer, unassigned; (+)) [Compound 23, (+)-4-(2-chloro-2,2-difluoroethyl)-1-{[6-(difluoromethyl)-2-(methoxymethyl)imidazo[2,1-b][1,3,4]thiadiazol-5-yl]methyl}pyrrolidin-2-one] returned a melting point of 73 °C.
